Test results as given in patent US20040097420A1, “Proteasome regulation of NF-kB activity” (Harvard College, priority 1994, published 2004).
Non-standard residues stand in square brackets, D forms with d. Residues, ends and D or L forms follow the SMILES beside them. *: point of attachment. Phe(4-NO2) = N[C@@H](Cc1ccc([N+](=O)[O-])cc1)C(=O)O; Tyr(3,5-Br2) = N[C@@H](Cc1cc(Br)c(O)c(Br)c1)C(=O)O; Tyr(3,5-I2) = N[C@@H](Cc1cc(I)c(O)c(I)c1)C(=O)O; 1Nal = N[C@@H](Cc1cccc2ccccc12)C(=O)O; 2Nal = N[C@@H](Cc1ccc2ccccc2c1)C(=O)O; tBuAla = CC(C)(C)C[C@H](N)C(=O)O; Cha = N[C@@H](CC1CCCCC1)C(=O)O; AllylGly = C=CC[C@H](N)C(=O)O; Nva = CCC[C@H](N)C(=O)O; Cbz = O=C(OCc1ccccc1)*; Boc = CC(C)(C)OC(=O)*

Biological target: T1, 20S proteasome (Oryctolagus cuniculus, UniProt G1T4Q9)
T1 sequence (G1T4Q9 60-263): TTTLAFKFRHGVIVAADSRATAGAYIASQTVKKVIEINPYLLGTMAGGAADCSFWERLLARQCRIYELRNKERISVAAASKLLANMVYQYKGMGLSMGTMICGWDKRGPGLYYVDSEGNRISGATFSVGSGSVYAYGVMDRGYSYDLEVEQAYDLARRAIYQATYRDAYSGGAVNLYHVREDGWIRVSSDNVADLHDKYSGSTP
Assay: Inhibition of the 20S proteasome (kinetic experiments, Ki)
Assay type: biochemical, Rabbit
Conditions: Table V, miscellaneous tripeptide aldehydes; 20S proteasome
Text: Tables I-III summarize results from kinetic experiments that measured the inhibition of the 20S and 26S proteasomes, as well as cathepsin B and calpain. In these tables, Ki values are reported, which are dissociation constants for the equilibrium that is established when enzyme and inhibitor interact to form the enzyme:inhibitor complex.
The substances and assay conditions are briefly summarized in the footnotes to Table I. MG 101 and MG 102, also known as Calpain Inhibitor I and II, were purchased from Calbiochem as catalogue products.
Table V summarizes data for the inhibition of the 20S proteasome by various tripeptide aldehyde inhibitors.

Ki [nM]	SMILES
0.3	CCC[C@@H](C=O)NC(=O)[C@H](CC(C)C)NC(=O)[C@H](Cc1cccc2ccccc12)NC(=O)OCc1ccccc1 [MG 142] (Cbz-[1Nal]-Leu-[Nva]-aldehyde)
60	CC(C)C[C@H](NC(=O)OCc1ccccc1)C(=O)N[C@@H](CC(C)C)C(=O)N[C@H](C=O)CC1CCCCC1 [MG 129] (Cbz-Leu-Leu-[Cha]-aldehyde)
51	CC(C)C[C@H](NC(=O)OCc1ccccc1)C(=O)N[C@@H](CC(C)C)C(=O)N[C@H](C=O)Cc1cc(Br)c(O)c(Br)c1 [MG 160] (Cbz-Leu-Leu-[Tyr(3,5-Br2)]-aldehyde)
0.24	CC(C)C[C@@H](C=O)NC(=O)[C@H](CC(C)C)NC(=O)[C@H](Cc1ccc2ccccc2c1)NC(=O)OCc1ccccc1 [MG 165] (Cbz-[2Nal]-Leu-Leu-aldehyde)
6	CC(C)C[C@H](NC(=O)OCc1ccccc1)C(=O)N[C@@H](CC(C)C)C(=O)N[C@H](C=O)Cc1ccc(O)cc1 [MG 131] (Cbz-Leu-Leu-Tyr-aldehyde)
0.035	CC(C)C[C@@H](C=O)NC(=O)[C@H](Cc1cccc2ccccc12)NC(=O)[C@H](Cc1cccc2ccccc12)NC(=O)OCc1ccccc1 [MG 166] (Cbz-[1Nal]-[1Nal]-Leu-aldehyde)
0.015	CC(C)C[C@@H](C=O)NC(=O)[C@H](Cc1cccc2ccccc12)NC(=O)[C@H](Cc1ccc2ccccc2c1)NC(=O)OCc1ccccc1 [MG 167] (Cbz-[2Nal]-[1Nal]-Leu-aldehyde)
54	CC(C)C[C@@H](C=O)NC(=O)[C@H](CC(C)C)NC(=O)[C@H](CC(C)C)NC(=O)OC(C)(C)C [MG 155] (Boc-Leu-Leu-Leu-aldehyde)
1000	CC(C)C[C@H](NC(=O)OCc1ccccc1)C(=O)N[C@@H](CC(C)C)C(=O)N[C@H](C=O)CC(C)(C)C [MG 136] (Cbz-Leu-Leu-[tBuAla]-aldehyde)
64	CC(C)C[C@H](NC(=O)OCc1ccccc1)C(=O)N[C@@H](CC(C)C)C(=O)N[C@H](C=O)Cc1cc(I)c(O)c(I)c1 [MG 161] (Cbz-Leu-Leu-[Tyr(3,5-I2)]-aldehyde)
0.4	CC(C)C[C@@H](C=O)NC(=O)[C@H](CC(C)C)NC(=O)[C@H](Cc1cccc2ccccc12)NC(=O)OCc1ccccc1 [MG 150] (Cbz-[1Nal]-Leu-Leu-aldehyde)
50	CCC[C@@H](C=O)NC(=O)[C@H](CC(C)C)NC(=O)[C@H](CC1CCCCC1)NC(=O)OCc1ccccc1 [MG 141] (Cbz-[Cha]-Leu-[Nva]-aldehyde)
290	CC(C)C[C@H](NC(=O)OCc1ccccc1)C(=O)N[C@@H](CC(C)C)C(=O)N[C@H](C=O)Cc1ccc([N+](=O)[O-])cc1 [MG 135] (Cbz-Leu-Leu-[Phe(4-NO2)]-aldehyde)
10	CC(C)C[C@H](NC(=O)OCc1ccccc1)C(=O)N[C@@H](CC(C)C)C(=O)N[C@H](C=O)Cc1c[nH]c2ccccc12 [MG 151] (Cbz-Leu-Leu-Trp-aldehyde)
0.49	CC(C)C[C@@H](C=O)NC(=O)[C@H](C)NC(=O)[C@H](Cc1cccc2ccccc12)NC(=O)OCc1ccccc1 [MG 168] (Cbz-[1Nal]-Ala-Leu-aldehyde)
20	C=CC[C@@H](C=O)NC(=O)[C@H](CC(C)C)NC(=O)[C@H](CC(C)C)NC(=O)OCc1ccccc1 [MG 139] (Cbz-Leu-Leu-[AllylGly]-aldehyde)

SMILES	Ki [nM]
CC(C)C[C@@H](C=O)NC(=O)[C@H](CC(C)C)NC(=O)[C@H](CC(C)C)NC(=O)OCc1ccccc1 [MG 132] (Cbz-Leu-Leu-Leu-aldehyde)	9

Biological target: T2, chymotrypsin-like activity of the proteasome (UniProt Q32KL2)
T2 sequence (Q32KL2 1-263): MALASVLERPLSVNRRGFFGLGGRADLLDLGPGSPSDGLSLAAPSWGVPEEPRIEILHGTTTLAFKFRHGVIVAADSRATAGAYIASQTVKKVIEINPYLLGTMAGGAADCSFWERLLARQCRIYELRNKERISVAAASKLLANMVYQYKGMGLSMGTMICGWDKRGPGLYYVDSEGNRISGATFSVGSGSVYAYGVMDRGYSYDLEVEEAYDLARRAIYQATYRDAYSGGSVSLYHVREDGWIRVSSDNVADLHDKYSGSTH
Assay: not given
Conditions: slow binding inhibitors; Vinitsky et al., Biochemistry 31:9421-9428 (1992); cited from earlier work

SMILES	Ki [nM]
CSCC[C@@H](C=O)NC(=O)[C@H](CC(C)C)NC(=O)[C@H](CC(C)C)NC(C)=O [Ac-LLM-H, N-acetyl-Leu-Leu-methioninal] (Ac-Leu-Leu-Met-aldehyde)	33000
